In US6469028B1, “Synthesis and use of retinoid compounds having negative hormone and/or anatgonist activities” (Allergan, Inc., priority 1995, dated 2002):

Key:
ER-RAR-α = experiment: Example 10: repression of basal gene activity, ERE-tk-Luc, CV-1 cells; format: cell-based; details: 10^−9 to 10^−6 M, 18 hours, single agent
Source text: (§1) More specifically, these procedures employed the ER-RAR chimeric receptor and ERE-tk-Luc reporter system. The ERE-tk-Luc plasmid includes the region −397 to −87 of the estrogen responsive 5′-flanking region of the Xenopus vitellogenin A2 gene, described by Klein-Hitpass, et al. in Cell 46:1053-1061 (1986), ligated upstream of the HSV thymidine kinase promoter and luciferase reporter gene of plasmid tk-Luc. The ER-RAR chimeric receptors consisted of the estrogen receptor DNA binding domain fused to the “D-E-F” domain of the RARs. Those having ordinary skill in the art appreciate this “D-E-F” domain functions to bind retinoid, to provide a retinoid inducible transactivation function and to provide a contact site for heterodimerization with RXR. Thus, luciferase expression in this reporter system was dependent on activation of the transfected chimeric receptor construct.
(§2) CV-1 cells were co-transfected with the ERE-tk-Luc reporter plasmid and either ER-RAR-α, ER-RAR-β or ER-RAR-γ expression plasmids. The ERE-tk-Luc plasmid contained the estrogen-responsive promoter element of the Xenopus laevis vitellogenin A2 gene and was substantially identical to the reporter plasmid described by Klein-Hitpass et al. in Cell 46:1053 (1986), except that the CAT reporter gene was substituted by a polynucleotide sequence encoding luciferase. The ER-RAR-α, ER-RARβ and ER-RAR-γ chimeric receptor-encoding polynucleotides employed in the co-transfection have been described by Graupner et al. in Biochem. Biophys. Res. Comm. 179:1554 (1991). […] Calcium phosphate transfections were carried out exactly as described in Example 6 using 0.5 μg/well of reporter plasmid and either 0.05 μg, 0.10 μg or 0.2 μg/well of receptor plasmid. […] Cell lysates and luciferase activity measurements were performed as described in Example 6.

ER-RAR-β = experiment: as above; format: cell-based; details: 10^−9 to 10^−6 M, 18 hours, single agent
Source text: as §1, §2

ER-RAR-γ = experiment: as above; format: cell-based; details: 10^−9 to 10^−6 M, 18 hours, single agent
Source text: as §1, §2

[1] = system: retinal pigment epithelium (RPE) cells; experiment: Example 19: proliferation of primary retinal pigment epithelium cultures; format: cell-based, human; details: for RPE cell growth: single agent, 10^−12 to 10^−6M (FIG. 18)
Experimental: Primary cultures of human retinal pigment epithelium (RPE) were established according to the method described by Campochiaro et al. in Invest. Opthal & Vis. Sci. 32:65 (1991). 5×10^4 cells were plated in 16-mm wells of 24-well multiwell plates in DMEM (Gibco) containing 5% FBS. […] Cells were fed with fresh media containing the appropriate concentrations of these compounds every two days for a total of five days of treatment. Cells were removed from the plates by gentle digestion with trypsin and the number of cells was counted with an electronic cell counter.
AGN 193109 was tested for its ability to potentiate the anti-proliferative effect of 13-cis retinoic acid (13-cis RA) in primary RPE cultures using conditions and techniques to measure RPE cell proliferation described above. […] More particularly, 13-cis RA is useful in the treatment of several disease states, including acne (Peck et al. N. Engl. J. Med. 300:329 (1977); Jones et al. Br. J. Dermatol. 108:333 (1980)), and squamous cell carcinoma of the skin and cervix in combination treatment with interferon 2α (Lippman et al. J. Natl. Cancer Inst. 84:241 (1992); Moore et al. Seminars in Hematology 31:31 (1994)).
We next tested the ability of AGN 193109 to potentiate the activities of other nuclear receptor hormones in primary RPE cell cultures. Dexamethasone, a synthetic glucocorticoid receptor agonist, is one member of a class of compounds that have been used clinically for their potent anti-inflammatory and immunosuppressive properties. Thyroid hormone (T3; […]) is a natural thyroid hormone receptor agonist used primarily for hormone replacement therapy in the treatment of hypothyroidism.

[2] = system: cultured cervical carcinoma cells; experiment: Example 23: cultured cervical carcinoma cells from a patient biopsy; format: cell-based; details: 10^−10 to 10^−6 M
Source text: A patient presenting with an advanced cervical carcinoma is first identified. A cervical biopsy is obtained according to methods that will be familiar to one having ordinary skill in the art. Cells from the explanted tumor are propagated in tissue culture according to standard techniques to provide cell numbers sufficient to allow division into three sample groups. Culture conditions described by Agarwal et al. in Cancer Res. 54:2108 (1994) are employed for this purpose. The first group is reserved as a control and receives vehicle alone (ethanol). The second group is treated with the RAR agonist retinoic acid at a concentration of from 10^−10 to 10^−6 M. The third group is treated with AGN 193109 at doses ranging from 10^−10 to 10^−6 M. Cells are fed with fresh growth medium daily and are provided with the retinoids described above as appropriate for each sample group. Cells are counted after three days using an electric cell counter.

rabbits = experiment: Example 24: rabbit model of proliferative vitreoretinopathy (PVR); format: in vivo
[3] = system: RAR-γ-VP-16 with ER-RXR-α; details: no other retinoid added, 18 hours
RARα = biological target: T1, RARα (Homo sapiens, UniProt P10276); experiment: Example 8: protease protection analysis; format: biochemical; set-up: host or cells: TNT-coupled reticulocyte lysate in vitro transcription-translation; details: ATRA and AGN 193109 100 nM, AGN 193583 1000 nM; trypsin 25, 50 or 100 μg/ml, 10 minutes
T1 sequence (P10276 1-462): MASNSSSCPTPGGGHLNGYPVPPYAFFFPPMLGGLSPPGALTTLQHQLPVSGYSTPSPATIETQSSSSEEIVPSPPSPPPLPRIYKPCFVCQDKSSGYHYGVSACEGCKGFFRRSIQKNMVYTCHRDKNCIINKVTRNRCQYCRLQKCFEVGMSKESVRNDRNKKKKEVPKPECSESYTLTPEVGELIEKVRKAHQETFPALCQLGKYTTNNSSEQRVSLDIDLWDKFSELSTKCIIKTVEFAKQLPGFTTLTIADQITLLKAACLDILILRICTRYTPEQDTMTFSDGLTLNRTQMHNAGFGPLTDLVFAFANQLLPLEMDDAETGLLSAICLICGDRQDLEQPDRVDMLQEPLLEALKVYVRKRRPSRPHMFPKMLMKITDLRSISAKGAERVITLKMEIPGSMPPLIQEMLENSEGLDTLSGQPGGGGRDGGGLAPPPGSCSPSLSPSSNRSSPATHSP
Experimental: A plasmid constructed in the vector pGEM3Z (Pharmacia) and containing the RAR-α cDNA (Giguere et al. Nature 330:624 (1987)), was used in connection with the TNT-coupled reticulocyte lysate in vitro transcription-translation system (Promega) to prepare [^35S]-methionine labeled RAR-α. Limited proteolytic digestion of the labeled protein RAR-α was carried out according to the method described by Keidel et al. in Mol. Cell. Biol. 14:287 (1994). […] After ligand binding, 1 μl of appropriately concentrated trypsin was added to the mixture to give final concentrations of 25, 50 or 100 μg/ml. Samples were incubated at room temperature for 10 minutes and trypsin digestion stopped by addition of SDS-sample buffer. Samples were subjected to polyacrylamide gel electrophoresis and autoradiographed according to standard procedures.

primary RPE cells = experiment: Example 27: proliferation of primary RPE cells with TR-1; format: cell-based, Human; details: five days of treatment
Experimental: Human primary RPE cells are obtained and cultured according to standard methods. The cultured cells are divided into four groups and treated as follows. Group 1 receives vehicle alone (ethanol). Group 2 is treated with 13-cis retinoic acid at concentrations ranging from 10^−11 to 10^−6 M. Group 3 is treated with the thyroid hormone inverse agonist TR-1 at concentrations ranging from 10^−11 to […]. Group 4 is co-treated with 13-cis retinoic acid at concentrations ranging from 10^−11 to 10^−6 M TR-1. Cells are refed with fresh growth medium and re-treated with the appropriate compound every two days for a total of five days of treatment. The proliferation rate over the duration of the experiment is quantitated via measurement of the cell number in the cultures using an electric cell counter.

[4] = system: patients having retinal detachment resulting from PVR; details: 40 mg oral 13-cis retinoic acid twice daily for four weeks
T3R-VP-16 = experiment: Example 26: thyroid hormone receptor negative hormone assay, CV-1 cells; format: cell-based; details: CV-1 cells with ERE-tk-Luc, ER-RXRα and T3R-VP-16
Source text: CV-1 cells are co-transfected with the luciferase reporter plasmid ERE-tk-Luc and the plasmids ER-RXR-α and T3R-VP-16. T3R-VP-16 is identical to the plasmid RAR-γ-VP-16, except the RAR-γ moiety of RAR-γ-VP-16 has been substituted by the thyroid hormone receptor cDNA. As such, T3R-VP-16 expresses a fusion protein containing the activation domain of HSV VP-16 in frame with the N-terminus of the thyroid hormone receptor. Standard transfection and cell culture methods are employed for this purpose. After transfection, cells are rinsed and fed with growth medium containing 10% fetal calf serum which has been extracted with activated charcoal. Cells are treated with vehicle alone (ethanol), thyroid hormone (10^−9 to 10^−10 M), or compound TR-1 (10^−9 to 10^−6 M). […] Further, TR-1 is capable of antagonizing thyroid hormone mediated transactivation and as such is a thyroid receptor antagonist.

`CC1=C(/C=C/C(C)=C/C=C/C(C)=C/C(=O)O)C(C)(C)CCC1` [ATRA, all-trans-retinoic acid, reference compound] was tested, and the luciferase reporter activity (ER-RAR-α) was “strongly induced luciferase expression”, the luciferase reporter activity (ER-RAR-β) was “strongly induced luciferase expression” and the luciferase reporter activity (ER-RAR-γ) was “strongly induced luciferase expression”. The RPE cell growth [1] was “effectively inhibited RPE cell growth”, the RPE cell proliferation ([1]; single-agent treatment (FIG. 19): dexamethasone 10^−11 to 10^−6M, ATRA 10^−12 to 10^−6M) was “substantially unable to inhibit RPE cell proliferation” and the “cell number after three days” value [2] was “does not substantially inhibit the growth rate”. The “frequency and severity of tractional retinal detachment” value (rabbits; retinoic acid 100 μg intravitreal, single agent) was “significantly reduced frequency and severity of retinal detachment”, the “luciferase activity of triple transfectants” value [3] was “modest increase of luciferase activity over the high basal level” and the “pattern of trypsin sensitivity of labeled RAR-α after prebinding” value (RARα) was “two major protease resistant species”.

`CC1=C(/C=C/C(C)=C/C=C/C(C)=C\C(=O)O)C(C)(C)CCC1` [13-cis RA, 13-cis retinoic acid, reference compound] was tested, and the “effectiveness compared with ATRA” value ([1]; 13-cis RA 10^−12 to 10^−6M) was “approximately two orders of magnitude less effective”, the RPE cell growth [1] was “effectively inhibited RPE cell growth” and the “cellular proliferation, single agent” value (primary RPE cells) was “dose dependent decrease in cell number”. The “incidence of retinal redetachment” value [4] was “significantly reduced incidence of retinal redetachment”.

For `N[C@@H](Cc1cc(I)c(Oc2ccc(O)c(I)c2)c(I)c1)C(=O)O` [thyroid hormone, 3,3′,5-triiodothyronine, reference compound], the RPE cell proliferation ([1]; thyroid hormone alone, 10^−11 to 10^−6M) was “refractory to single-agent treatment”, the “retinal detachment compared with control rabbits” value (rabbits; second study, single agent 100 μg intravitreal) was “does not inhibit retinal detachment” and the luciferase activity (T3R-VP-16) was “slight increase of luciferase activity in a dose dependent manner”.
